Measurements published in US5273991A, “Imidazole-containing compositions and methods of use thereof analogs of distamycin” (Research Corporation Technologies, Inc., priority 1992, dated 1993).
Read-outs that look alike come from different tables or passages of the source. Blank lines part the entries; values can stand above or below the compound they belong to.

Columns and labels:
poly(dGdC) [1] = assay: ethidium displacement assay, poly(dGdC); assay type: binding
From the text: (§1) The ethidium displacement assay is based on the fact that ethidium binding to DNA causes a large (approximately 25 fold) florescence enhancement as a result of the hydrophobic environment surrounding the ethidium molecule. Displacement of ethidium results in decreased fluorescence, and thus binding constants of drugs to DNA can be estimated and compared by measuring the loss of fluorescence as a function of added drug. The drug concentration which produces 50% inhibition of florescence is approximately inversely proportional to the apparent binding constant.
(§2) The relative DNA binding constants (Kapp) of distamycin and Compounds 6-10 to calf thymus DNA, T4 coliphage DNA, poly(dAdT) and poly(dGdC) were determined using the ethidium displacement assay (Morgan et al., 1979). The Kapp of ethidium bromide (Debart et al., 1989) is included for comparison. 25 μL of a 2A260 DNA solution was added to 2 mL of ethidium bromide buffer (250 μL of 1.3 mM ethidium bromidestock, 314.9 mg Tris-HCl, 60.8 mg Tris base and 930/mg of Na2 EDTA.2H2 O in 250 ml H2 O) pH 7.4 and the maximum fluorescence was measured (excitation wavelength=546 nm, emission wavelength=600 nm) at ambient temperature.
(§3) DNA solutions of 2A260 were prepared as follows: T4 coliphage DNA: 10 units of DNA were dissolved in 1 mL of 10 mM sodium phosphate (pH 7.1) and 0.25 mM EDTA buffer to give a 10A260 solution. 0.3 mL of the stock solution were diluted to 1.5 mL with 10 mM sodium phosphate (pH 7.1) and 0.25 mM EDTA buffer to give a 2A260 solution. Calf thymus DNA: 100 units of DNA were dissolved in 5 mL of 10 mM sodium phosphate (pH 7.1) and 0.25 mM EDTA buffer to give a 20A260 solution. 1.5 mL of the stock solution were diluted to 15 mL with 10 mM sodium phosphate (pH 7.1) and 0.25 mM EDTA buffer to give a 2A260 solution. Poly(dA-dT) and Poly(dG-dC) DNA: 100 units of DNA were dissolved in 10 mL of 10 mM sodium phosphate pH 7.1) and 0.25 mM EDTA buffer to give a 10A260 solution. 3 mL of the stock solution were diluted to 15 mL with 10 mM sodium phosphate (pH 7.1) and 0.25 mM EDTA buffer to give a 2A260 solution.
(§4) Aliquots of 10 mM stock drug solution (1 mg of drug to be tested was dissolved with 1 mole equivalent of 0.1M HCl, and then diluted with appropriate volume of distilled water to make a 10 mM solution) were then added to the fluorescing solution and the florescence measured after each addition until a 50% reduction of fluorescence occurred. If the 10 mM stock solution lowered the % fluorescence too quickly, the stock solution was further diluted to 1 mM prior to titration. The apparent binding constant was then calculated from this equation: KEtBr [EtBr]=Kapp [drug], where [drug]=the concentration of drug at a 50% reduction of fluorescence and KEtBr [1×10^7 M^-1 for calf thymus and coliphage T4 DNA^18, 9.5×10^6 M^-1 for poly(dA.dT)^30, and 9.9×10^6 M^-1 for poly(dG.dC)^30 ] and [EtBr] were known. The concentration of ethidium bromide was 1.3 μM. The Kapp values are shown in Table I. In a separate experiment, the Kapp of Compound 5 for calf thymus DNA and poly[dGdC] were determined to be 0.3×10^5 M^-1 and 2.6×10^5 M^-1, respectively. The error in these measurements is ±[…].

calf thymus DNA [2] = assay: ethidium displacement assay, calf thymus DNA; assay type: binding
From the text: as §1, §2, §3, §4

[3] = test system: human chronic myelogenous leukemic K562 cells; assay: growth inhibition of K562 cells (MTT viability assay); assay type: cell-based; conditions: for IC50: Homo sapiens, K562, 1 hour drug exposure at 37° C., 5-6 days, MTT; for activity against the growth of K562 cells: in words
Procedure: The ability of the compounds of the present invention to inhibit the growth of human chronic myelogenous leukemic K562 cells was determined as follows.
The incubation was terminated by centrifugation (5 minutes, 300 g) and the cells washed once with drug-free medium.
Following the appropriate drug treatment, the cells were transferred to 96-well microtiter plates, 10^4 cells per well, 8 wells per sample. Plates were then kept in the dark at 37° C. in a humidified atmosphere containing 5% CO2. […] Following incubation of the plates of 5-6 days (to allow control cells to increase in the number by 10 fold) 20 μL of a 5 mg/mL solution of MTT in phosphate buffered saline was added to each well and the plates further incubated for 5 h. The plates were then centrifuged for 5 minutes at 300 g and the bulk of the medium pipetted from the cell pellet leaving 10-20 μL per well. 200 μL DMSO was added to each well and the samples agitated to ensure complete mixing. The optical density was then read at a wavelength of 550 nm on a Titertek Multiscan ELISA plate reader and the dose-response curve constructed.

calf thymus DNA [4] = assay: UV-dialysis study (covalent retention on DNA); assay type: binding; conditions: 24 h incubation at room temperature; 20-26 hours dialysis; pH 7.1
From the text: The compounds of the present invention are useful as anticancer agents. Although the biological mechanism which results in anticancer activity is not fully understood, the compounds of the subject invention are capable of binding to the minor groove of double-stranded DNA and, unlike distamycin and netropsin, can tolerate GC-containing DNA. Accordingly, the DNA alkylating moiety of the compounds of the present invention can be directed to the minor groove of GC-containing regions of double-stranded DNA. One of ordinary skill in the art can determine the DNA alkylating ability of the compounds of the present invention by art-recognized methods. The formation of an irreversible adduct of DNA and a compound of the present invention is defined herein as a measure of the DNA alkylating ability of the subject compounds. The formation of an irreversible adduct can be determined by art-recognized methods. For example, a solution containing DNA and a compound of the present invention can be exhaustively dialyzed under conditions which allow unbound drug to pass out of the dialysis bag. The percentage of the compound which has been retained in the dialysis bag is considered to be covalently bound to the DNA, and is determined by comparing the UV absorption spectrum of the compound/DNA solution before and after exhaustive dialysis.
0.5 mL of 2A260 calf thymus DNA was diluted to 2 mL with 10 mM sodium phosphate and 0.25 mM EDTA buffer, pH 7.1. Four aliquots (3 μL each) of a 1 mM stock drug solution in distilled water were added to the DNA solution and a UV absorption spectrum (300-320) was recorded after each addition. The drug/DNA solution was incubated for 24 h at room temperature and another UV spectrum was recorded. The drug/DNA solution was then transferred into a dialysis bag and the dialysis bag was suspended in 30 mL of 10 mM sodium phosphate and 0.25 mM EDTA buffer, pH, 7.1, at room temperature. After 20-26 hours, the […] spectrum of 2 mL of the buffer outside the dialysis bag was recorded. The absorbance of the drug peak was converted to concentration by the Beer-Lambert equation, and the data was presented as percent initial concentration. Under these conditions, substantial amounts of Compounds 6 (55±5%), 7 (45±5%), 8 (85±5%) and 10 (100±5%) are retained in the dialysis bag, while only 29±5% of a formamido analog^1 is retained.

T4 coliphage DNA [5] = assay: ethidium displacement assay, T4 coliphage DNA; assay type: binding; conditions: ± 0.02 × 10^5 M^-1, pH 7.4
From the text: as §1
The apparent binding constants for T4 coliphage DNA are an indicator of the minor groove selectivity of the compounds of the present invention. The major groove of T4 coliphage DNA is blocked by α-glycosylation of the 5-hydroxymethylcytidine residues; therefore, the non-intercalating agents that bind to T4 coliphage DNA must interact in the minor groove [Lown (1982) Acc. Chem. Res., 15, 381].
as §2, §3, §4

minor groove of B-DNA = conditions: cited from earlier work
poly(dAdT) [6] = assay: ethidium displacement assay, poly(dAdT); assay type: binding; conditions: ± 0.02 × 10^5 M^-1, pH 7.4
From the text: as §1, §2, §3, §4

poly(dAdT) [7] = conditions: poly(dA.dT); literature constant; read-out: KEtBr (converted); cited from earlier work
calf thymus DNA [8] = conditions: literature constant, read-out: KEtBr; cited from earlier work
T4 coliphage DNA [9] = conditions: literature constant, read-out: KEtBr; cited from earlier work
poly(dGdC) [10] = conditions: poly(dG.dC); literature constant; read-out: KEtBr (converted); cited from earlier work

SMILES: CN(C)NC(=O)c1nc(NC(=O)c2nc(NC(=O)c3ccc(N(CCCl)CCCl)cc3)cn2C)cn1C [Compound 5, N-(N',N'-dimethylamino)-1-methyl-4-{4-[4,4-bis(2-chloroethyl)aminobenzamido]-1-methylimidazole-2-carboxamido}imidazole-2-carboxamide]
- Kd (poly(dGdC) [1]; poly[dGdC], separate experiment, read-out: Kapp (converted)): 3.85 µM
- Kd (calf thymus DNA [2]; separate experiment, read-out: Kapp (converted)): 33.3 µM

SMILES: Cn1cc(NC(=O)c2cc(NC(=O)c3cc(NC=O)cn3C)cn2C)cc1C(=O)NCCC(=N)N [Distamycin, distamycin]
- Association constant Kapp (T4 coliphage DNA [5]): 640000 M⁻¹
- Association constant Kapp (poly(dGdC) [1]; poly(dGdC), ± 0.02 × 10^5 M^-1, pH 7.4): 203000 M⁻¹
- Association constant Kapp (calf thymus DNA [2]; ± 0.02 × 10^5 M^-1, pH 7.4): 774000 M⁻¹
- specific nucleotide sequence bound / preferred (minor groove of B-DNA): (AT)5
- Association constant Kapp (poly(dAdT) [6]): 3.48e+07 M⁻¹

SMILES: CC[n+]1c(-c2ccccc2)c2cc(N)ccc2c2ccc(N)cc21 [EtBr, ethidium bromide]
- Kd (poly(dAdT) [7]): 0.105 µM
- Kd (calf thymus DNA [8]): 0.1 µM
- Kd (T4 coliphage DNA [9]): 0.1 µM
- Kd (poly(dGdC) [10]): 0.101 µM

SMILES: Cn1cc(NC(=O)c2cc(NC(=O)CN=C(N)N)cn2C)cc1C(=O)NCCC(=N)N [Netropsin, netropsin]
- specific nucleotide sequence bound / preferred (minor groove of B-DNA): (AT)4

Further lines, with some results ahead:

- IC50 [3]: 350 µM
SMILES: CN(C)CCNC(=O)c1nc(NC(=O)c2nc(NC(=O)CCl)cn2C)cn1C [Compound 11, N-(N',N'-dimethylaminoethyl)-1-methyl-4-[4-(chloroacetamido)-1-methylimidazole-2-carboxamido)imidazole-2-carboxamide]

- IC50 [3]: 400 µM
SMILES: CN(C)CCNC(=O)c1nc(NC(=O)c2nc(NC(=O)CBr)cn2C)cn1C [Compound 12, N-(N',N'-dimethylaminoethyl)-1-methyl-4-[4-(bromoacetamido)-1-methylimidazole-2-carboxamido]imidazole-2-carboxamide]

- IC50 [3]: > 500 µM
SMILES: CN(C)NC(=O)c1nc(NC(=O)c2nc(NC=O)cn2C)cn1C [Compound 13]
- activity against the growth of K562 cells [3]: no activity

- IC50 [3]: > 500 µM
SMILES: CN(C)CCNC(=O)c1nc(NC(=O)c2nc(NC=O)cn2C)cn1C [Compound 14]
- activity against the growth of K562 cells [3]: no activity

- IC50 [3]: > 500 µM
SMILES: CN(C)CCNC(=O)c1nc(NC(=O)c2nc(NC(=O)c3nc(NC=O)cn3C)cn2C)cn1C [Compound 15, N-(N',N'-dimethylaminoethyl)-1-methyl-4-{1-methyl-4-[4-formamido-2-methylimidazole-2-carboxamido]imidazole-2-carboxamido}imidazole-2-carboxamide]
- retained in the dialysis bag (percent initial concentration) (calf thymus DNA [4]): 29±5%
- activity against the growth of K562 cells [3]: no activity
